Reference: US20260209301A1, “Galanin-2 Receptor Agonists” (LIFEARC, priority 2022, published 2026)

Experiments:
[1] = system: mouse CFA model of inflammatory pain; assay: CFA-induced inflammatory pain model, weight bearing; format: in vivo
Text: Intraplantar injection of Complete Freunds adjuvant (CFA) causes an inflammatory reaction which induces hypersensitivity and oedema and mimics some aspects of clinical inflammatory pain. These effects can be investigated using equipment to measure the […]. Naive mice distribute their body weight equally between the two hind paws. When the injected hind paw is inflamed and/or painful, the weight is re-distributed so that less weight is put on the affected paw (decrease in weight bearing on injured paw). Weight bearing through each hind limb is measured using an incapacitance tester (Linton Instruments, UK).
Environmental conditions: Animals were housed in standard caging and laboratory conditions in groups of 2-5, with free access to food (5CR4, Purina) and water (except during placement in the incapacitance box) on a 12/12 light/dark cycle. […] Weight bearing: Mice were placed in the incapacitance tester with the hind paws on separate sensors and the average force exerted by both hind limbs was recorded over 2 seconds. […] Prior to test compound treatment, weight bearing readings were taken to assess baseline hypersensitivity 23 hours post-CFA. […] Weight bearing was then assessed at 4, 24, 48 and 72 hours post-test compound treatment.
Weight bearing (g) readings were taken for both right and left hind paws and the difference calculated. […]

GALR2 = biological target: T1, GALR2 (Homo sapiens, UniProt O43603); assay: Radioligand binding, [125I]galanin displacement on CHO GalR2 membranes; parameters: expressed in transfected cells; host or cells: CHO (Flp-In, pcDNA5/FRT); settings: recombinant GalR2 membranes, FIG. 3
T1 sequence (O43603 1-387): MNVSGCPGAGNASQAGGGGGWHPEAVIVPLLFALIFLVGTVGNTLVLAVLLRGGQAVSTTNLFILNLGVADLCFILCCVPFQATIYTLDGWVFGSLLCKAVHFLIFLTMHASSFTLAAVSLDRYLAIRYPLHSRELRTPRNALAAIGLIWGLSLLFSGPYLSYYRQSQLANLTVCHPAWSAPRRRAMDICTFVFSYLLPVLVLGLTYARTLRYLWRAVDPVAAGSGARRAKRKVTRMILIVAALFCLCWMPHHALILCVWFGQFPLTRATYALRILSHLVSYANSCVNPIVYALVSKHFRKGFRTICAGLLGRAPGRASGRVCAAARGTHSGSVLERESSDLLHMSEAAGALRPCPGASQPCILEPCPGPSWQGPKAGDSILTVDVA
Description: Cell membrane homogenates (4 μg protein—from CHO cells expressing the GalR2 receptor) were incubated for 120 minutes at 22° C. with 0.05 nM [^125I] galanin in the absence or presence of test compound in a buffer containing 25 mM Tris-HCl (pH 7.4, 10 mM MgCl2 and 0.5% BSA. Non-specific binding was determined in the presence of 1 μM porcine galanin. Following incubation, samples were filtered rapidly under vacuum through glass fiber filters (GF/B, Packard) pre-soaked with 0.3% PEI and rinsed several times with ice cold 50 mM Tris-HCl using a 96 sample cell harvester (Unifilter, Packard). The filters are dried then counted for radioactivity in a scintillation counter (Topcount, Packard) using a scintillation cocktail (Microscint 0), Packard). The results are expressed as a percent inhibition of the control radioligand specific binding. The standard reference compound is porcine galanin which is tested in each experiment at several concentrations to obtain a competition curve from which its IC50 is generated.
Briefly, cell overexpressing recombinant GalR2 were used to for crude membrane preparations. Competition style binding assays were then used to monitor displacement of [125I]-Galanin using a range of concentrations of Gal-FC fusion. After a period of incubation data were expressed relative the maximum specific Galanin bound.

| Substance | MED, reversal of hyperalgesia induced by CFA [1] [mg/kg i.p.] | duration of reversal of hyperalgesia induced by CFA [1] [h] | pIC50, displacement of [125I]-Galanin binding (GALR2) |
| --- | --- | --- | --- |
| Gal2-13FC: galanin 2-13, AEAAAKEAAAKA linker, human IgG1 FC; SEQ ID NO: 7 | ≤ 1 | ≥ 72 | – |
| Gal2-30FC: galanin 2-30, AEAAAKEAAAKA linker, human IgG1 FC; SEQ ID NO: 28 | – | – | 7.55 |
